Key:
Test in all cases: Hot-Spot kinase profiling
Format in all cases: biochemical
[1] = biological target: T1, GSK3β (Homo sapiens, UniProt P49841)
T1 construct: purchased Reaction Biology Corp
Description: (§1) Activities of kinases were determined using Hot-SpotSM kinase assay which was performed by Reaction Biology Corp. (Malvern PA, USA) as described previously.

[2] = biological target: T2, KDR/VEGFR2 (Homo sapiens, UniProt P35968)
T2 construct: purchased Reaction Biology Corp. (Malvern PA, USA)
T2 sequence (P35968 20-1356): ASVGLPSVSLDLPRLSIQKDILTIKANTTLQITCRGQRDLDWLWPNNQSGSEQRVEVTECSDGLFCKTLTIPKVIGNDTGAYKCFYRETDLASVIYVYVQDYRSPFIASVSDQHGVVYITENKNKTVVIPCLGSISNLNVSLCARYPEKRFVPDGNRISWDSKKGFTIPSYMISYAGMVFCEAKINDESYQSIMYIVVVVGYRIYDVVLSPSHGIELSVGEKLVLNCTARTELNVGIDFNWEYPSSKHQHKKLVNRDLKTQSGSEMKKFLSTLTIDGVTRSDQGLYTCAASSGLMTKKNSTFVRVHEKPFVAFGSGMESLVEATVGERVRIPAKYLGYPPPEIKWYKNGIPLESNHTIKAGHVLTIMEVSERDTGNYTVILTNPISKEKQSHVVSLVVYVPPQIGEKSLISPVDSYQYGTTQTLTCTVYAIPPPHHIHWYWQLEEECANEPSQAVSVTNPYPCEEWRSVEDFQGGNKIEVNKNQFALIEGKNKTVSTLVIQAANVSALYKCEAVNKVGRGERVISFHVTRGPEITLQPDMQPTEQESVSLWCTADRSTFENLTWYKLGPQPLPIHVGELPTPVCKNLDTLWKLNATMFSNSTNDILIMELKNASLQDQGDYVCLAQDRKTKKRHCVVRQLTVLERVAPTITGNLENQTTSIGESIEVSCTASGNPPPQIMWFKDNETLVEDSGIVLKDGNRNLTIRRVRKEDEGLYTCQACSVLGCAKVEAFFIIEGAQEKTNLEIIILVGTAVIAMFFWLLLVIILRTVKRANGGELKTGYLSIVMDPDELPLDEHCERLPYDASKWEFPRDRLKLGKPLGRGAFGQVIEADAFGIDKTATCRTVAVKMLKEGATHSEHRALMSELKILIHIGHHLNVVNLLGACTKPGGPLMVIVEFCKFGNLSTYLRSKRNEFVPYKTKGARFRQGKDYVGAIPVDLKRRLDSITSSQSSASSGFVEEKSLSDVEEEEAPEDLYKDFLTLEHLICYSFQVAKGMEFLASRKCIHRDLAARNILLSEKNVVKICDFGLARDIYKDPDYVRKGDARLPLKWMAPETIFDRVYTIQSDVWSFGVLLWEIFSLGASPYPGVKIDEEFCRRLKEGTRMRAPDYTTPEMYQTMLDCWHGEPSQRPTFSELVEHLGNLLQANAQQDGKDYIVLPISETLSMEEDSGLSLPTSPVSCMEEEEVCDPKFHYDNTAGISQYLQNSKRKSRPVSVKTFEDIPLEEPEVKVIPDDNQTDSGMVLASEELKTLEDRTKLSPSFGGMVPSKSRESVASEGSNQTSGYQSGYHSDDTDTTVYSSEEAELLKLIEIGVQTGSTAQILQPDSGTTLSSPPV
Description: as §1

[3] = biological target: FLT3 (ITD)-NPOS (Homo sapiens, UniProt P36888, ITD)
Description: as §1

[4] = biological target: T3, ERK7/MAPK15 (Homo sapiens, UniProt Q8TD08)
T3 construct: purchased Reaction Biology Corp
T3 sequence (Q8TD08 whole entry): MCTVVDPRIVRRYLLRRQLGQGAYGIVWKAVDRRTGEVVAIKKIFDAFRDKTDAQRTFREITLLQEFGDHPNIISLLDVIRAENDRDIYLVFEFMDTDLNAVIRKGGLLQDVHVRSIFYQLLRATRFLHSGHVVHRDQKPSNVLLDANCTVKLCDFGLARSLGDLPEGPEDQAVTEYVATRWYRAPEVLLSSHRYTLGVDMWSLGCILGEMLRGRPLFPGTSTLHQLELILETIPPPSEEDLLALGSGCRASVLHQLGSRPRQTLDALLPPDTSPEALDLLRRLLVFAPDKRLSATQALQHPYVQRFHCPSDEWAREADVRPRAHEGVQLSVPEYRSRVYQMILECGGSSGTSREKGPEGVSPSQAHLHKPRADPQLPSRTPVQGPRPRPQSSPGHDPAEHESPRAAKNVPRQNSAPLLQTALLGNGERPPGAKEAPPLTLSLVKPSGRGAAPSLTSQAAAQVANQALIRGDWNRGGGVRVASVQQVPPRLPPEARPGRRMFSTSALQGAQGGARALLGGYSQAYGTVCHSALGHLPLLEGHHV
Description: as §1

[5] = biological target: FLT3 (ITD)-F691L (Homo sapiens, UniProt P36888, F691L/ITD); settings: Table 5 kinase profiling
Description: as §1

[6] = biological target: T4, CDK6/cyclin D1 (Homo sapiens, UniProt Q00534)
T4 construct: purchased Reaction Biology Corp
T4 sequence (Q00534 whole entry): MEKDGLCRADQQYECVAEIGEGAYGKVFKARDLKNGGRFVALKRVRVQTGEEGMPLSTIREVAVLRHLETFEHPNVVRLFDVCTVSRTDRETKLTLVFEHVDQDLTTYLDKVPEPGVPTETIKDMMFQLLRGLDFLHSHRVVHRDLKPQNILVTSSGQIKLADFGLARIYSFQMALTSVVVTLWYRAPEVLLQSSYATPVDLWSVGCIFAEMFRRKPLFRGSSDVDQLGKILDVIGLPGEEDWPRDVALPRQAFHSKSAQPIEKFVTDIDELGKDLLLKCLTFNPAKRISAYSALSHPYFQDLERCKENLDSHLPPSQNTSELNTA
T4 sequence (P24385 whole entry partner): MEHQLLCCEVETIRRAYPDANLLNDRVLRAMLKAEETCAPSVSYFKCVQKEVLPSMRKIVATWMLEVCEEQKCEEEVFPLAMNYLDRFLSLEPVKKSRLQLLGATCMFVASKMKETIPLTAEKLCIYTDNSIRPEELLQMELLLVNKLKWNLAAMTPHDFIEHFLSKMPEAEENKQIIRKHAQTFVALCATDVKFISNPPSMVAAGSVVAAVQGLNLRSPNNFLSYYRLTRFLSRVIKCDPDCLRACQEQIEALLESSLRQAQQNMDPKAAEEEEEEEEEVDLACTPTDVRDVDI
Description: as §1

[7] = biological target: T5, c-Src (Homo sapiens, UniProt P12931); settings: read-out: % Enzyme Activity (Relative to DMSO Controls) c-Src
T5 construct: purchased Reaction Biology Corp. (HotSpot kinase assay)
Description: as §1

[8] = biological target: T6, PDGFRa (Homo sapiens, UniProt P16234); settings: read-out: % Enzyme Activity (Relative to DMSO Controls) PDGFRa
T6 construct: purchased Reaction Biology Corp. (Malvern PA, USA)
Description: as §1

[9] = biological target: T7, SYK (Homo sapiens, UniProt P43405); settings: read-out: % Enzyme Activity (Relative to DMSO Controls) SYK
T7 construct: purchased Reaction Biology Corp. (Malvern PA, USA)
Description: as §1

[10] = biological target: T8, FLT3 (Homo sapiens, UniProt P36888)
T8 construct: purchased Reaction Biology Corp
T8 sequence (P36888 27-993): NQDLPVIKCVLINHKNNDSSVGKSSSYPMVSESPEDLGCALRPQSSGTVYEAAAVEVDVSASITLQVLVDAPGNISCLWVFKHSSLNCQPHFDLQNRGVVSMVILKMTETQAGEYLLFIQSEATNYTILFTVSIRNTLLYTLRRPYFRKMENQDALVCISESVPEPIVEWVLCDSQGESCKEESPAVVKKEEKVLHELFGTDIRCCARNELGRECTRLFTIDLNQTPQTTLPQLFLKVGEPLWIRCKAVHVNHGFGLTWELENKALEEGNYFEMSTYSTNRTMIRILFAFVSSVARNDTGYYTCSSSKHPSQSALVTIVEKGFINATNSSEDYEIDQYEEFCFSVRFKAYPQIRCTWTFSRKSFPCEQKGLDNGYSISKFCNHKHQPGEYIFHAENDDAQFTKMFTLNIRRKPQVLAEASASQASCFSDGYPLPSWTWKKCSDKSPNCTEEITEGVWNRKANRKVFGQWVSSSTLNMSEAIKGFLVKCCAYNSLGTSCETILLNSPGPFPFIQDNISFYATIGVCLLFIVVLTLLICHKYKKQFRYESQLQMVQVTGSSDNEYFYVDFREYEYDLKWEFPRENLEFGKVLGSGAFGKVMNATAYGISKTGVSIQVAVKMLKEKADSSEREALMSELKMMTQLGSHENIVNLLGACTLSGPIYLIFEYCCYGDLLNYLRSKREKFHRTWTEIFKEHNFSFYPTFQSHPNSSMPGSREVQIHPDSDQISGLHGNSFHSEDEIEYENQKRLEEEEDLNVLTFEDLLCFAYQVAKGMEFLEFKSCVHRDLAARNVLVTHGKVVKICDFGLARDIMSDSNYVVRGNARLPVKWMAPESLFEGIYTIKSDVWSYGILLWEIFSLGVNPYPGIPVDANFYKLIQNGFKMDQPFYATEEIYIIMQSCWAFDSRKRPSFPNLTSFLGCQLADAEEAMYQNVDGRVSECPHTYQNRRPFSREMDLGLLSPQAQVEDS
Description: as §1

[11] = biological target: T9, FLT3 (R595_E596insEY) (Homo sapiens, UniProt P36888, INS595EY)
T9 construct: purchased Reaction Biology Corp
T9 sequence (P36888 with tags, fused parts or gaps INS595EY limits assumed): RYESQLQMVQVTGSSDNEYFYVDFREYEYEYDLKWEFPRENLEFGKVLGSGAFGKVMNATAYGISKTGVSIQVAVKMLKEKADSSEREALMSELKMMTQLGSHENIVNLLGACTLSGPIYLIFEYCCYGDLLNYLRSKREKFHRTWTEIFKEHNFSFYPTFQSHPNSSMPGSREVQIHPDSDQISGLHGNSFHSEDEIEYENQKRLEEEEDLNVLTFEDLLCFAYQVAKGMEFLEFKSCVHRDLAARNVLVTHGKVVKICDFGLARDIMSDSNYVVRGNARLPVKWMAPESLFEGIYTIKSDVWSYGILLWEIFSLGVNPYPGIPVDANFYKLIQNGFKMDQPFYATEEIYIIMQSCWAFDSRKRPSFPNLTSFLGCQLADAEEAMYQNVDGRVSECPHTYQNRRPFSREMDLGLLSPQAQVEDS
Description: as §1

[12] = biological target: T10, JNK1 (Homo sapiens, UniProt P45983); settings: read-out: % Enzyme Activity (Relative to DMSO Controls) JNK1
T10 construct: purchased Reaction Biology Corp. (Malvern PA, USA)
Description: as §1

[13] = biological target: T11, c-Kit (Homo sapiens, UniProt P10721); settings: read-out: % Enzyme Activity (Relative to DMSO Controls) c-Kit
T11 construct: purchased Reaction Biology Corp. (HotSpot kinase assay)
Description: as §1

[14] = biological target: T12, FLT4/VEGFR3 (Homo sapiens, UniProt P35916)
T12 construct: purchased Reaction Biology Corp
T12 sequence (P35916 25-1363): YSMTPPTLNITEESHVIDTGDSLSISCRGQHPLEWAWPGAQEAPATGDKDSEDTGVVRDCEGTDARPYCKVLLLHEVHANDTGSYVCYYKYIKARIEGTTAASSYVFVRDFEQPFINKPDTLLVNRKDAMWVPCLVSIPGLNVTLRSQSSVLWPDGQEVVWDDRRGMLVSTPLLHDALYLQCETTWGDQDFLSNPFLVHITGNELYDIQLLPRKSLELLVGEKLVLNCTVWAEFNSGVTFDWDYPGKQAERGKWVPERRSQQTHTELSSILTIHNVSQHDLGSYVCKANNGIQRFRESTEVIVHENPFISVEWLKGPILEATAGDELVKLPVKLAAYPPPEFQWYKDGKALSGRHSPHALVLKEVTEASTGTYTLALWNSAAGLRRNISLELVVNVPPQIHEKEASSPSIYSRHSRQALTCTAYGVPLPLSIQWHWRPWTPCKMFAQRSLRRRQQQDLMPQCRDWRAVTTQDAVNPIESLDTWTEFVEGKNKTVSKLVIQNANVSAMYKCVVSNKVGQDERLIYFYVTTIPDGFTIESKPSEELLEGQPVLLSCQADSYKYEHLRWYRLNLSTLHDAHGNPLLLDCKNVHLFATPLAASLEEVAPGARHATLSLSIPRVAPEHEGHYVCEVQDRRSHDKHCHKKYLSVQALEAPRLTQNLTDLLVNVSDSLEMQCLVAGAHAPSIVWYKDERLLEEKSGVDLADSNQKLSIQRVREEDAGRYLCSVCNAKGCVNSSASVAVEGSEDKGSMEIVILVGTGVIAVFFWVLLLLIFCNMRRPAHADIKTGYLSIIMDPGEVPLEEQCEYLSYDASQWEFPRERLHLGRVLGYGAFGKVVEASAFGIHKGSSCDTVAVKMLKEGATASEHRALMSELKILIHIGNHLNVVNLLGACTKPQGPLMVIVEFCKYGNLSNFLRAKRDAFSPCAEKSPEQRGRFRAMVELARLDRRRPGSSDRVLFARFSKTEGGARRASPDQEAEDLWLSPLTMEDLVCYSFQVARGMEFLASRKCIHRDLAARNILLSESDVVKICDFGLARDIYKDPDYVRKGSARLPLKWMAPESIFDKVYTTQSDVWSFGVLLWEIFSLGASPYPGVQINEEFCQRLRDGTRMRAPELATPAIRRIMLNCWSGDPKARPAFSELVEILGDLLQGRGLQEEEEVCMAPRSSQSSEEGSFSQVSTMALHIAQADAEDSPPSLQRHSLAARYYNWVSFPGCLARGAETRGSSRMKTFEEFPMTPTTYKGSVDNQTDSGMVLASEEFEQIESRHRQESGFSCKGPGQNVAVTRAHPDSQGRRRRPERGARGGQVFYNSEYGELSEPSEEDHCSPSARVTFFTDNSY
Description: as §1

[15] = biological target: T13, BRAF (Homo sapiens, UniProt P15056); settings: read-out: % Enzyme Activity (Relative to DMSO Controls) BRAF
T13 construct: purchased Reaction Biology Corp. (HotSpot kinase assay)
Description: as §1

[16] = system: ALK1/ACVR1; settings: 0.15 μM
Description: as §1

[17] = biological target: T14, CDK2/cyclin A (Homo sapiens, UniProt P24941)
T14 construct: purchased Reaction Biology Corp
Description: as §1

[18] = biological target: T15, AKT1 (Homo sapiens, UniProt P31749); settings: read-out: % Enzyme Activity (Relative to DMSO Controls) AKT1
T15 construct: purchased Reaction Biology Corp. (HotSpot kinase assay)
Description: as §1

T1 sequence (P49841 whole entry): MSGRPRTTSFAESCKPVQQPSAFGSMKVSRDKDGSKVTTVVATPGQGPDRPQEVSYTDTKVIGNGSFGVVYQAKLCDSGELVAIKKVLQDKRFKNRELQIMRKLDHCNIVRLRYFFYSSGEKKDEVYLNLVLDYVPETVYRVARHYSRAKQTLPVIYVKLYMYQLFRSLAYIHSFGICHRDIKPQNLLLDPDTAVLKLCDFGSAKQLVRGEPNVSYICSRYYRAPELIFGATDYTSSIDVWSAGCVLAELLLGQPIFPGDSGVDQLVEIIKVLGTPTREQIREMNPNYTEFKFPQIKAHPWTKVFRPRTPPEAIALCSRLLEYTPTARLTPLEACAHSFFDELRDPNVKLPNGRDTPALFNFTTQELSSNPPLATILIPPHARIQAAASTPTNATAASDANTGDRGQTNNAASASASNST

`O=C(Nc1ccc(N2CCNCC2)cc1)c1n[nH]cc1Nc1ncnc2sc3c(c12)CCC3` [Compound 8t] was tested, and the remaining activity at 0.15 µM ([1]; 0.15 μM, read-out: % Enzyme Activity (Relative to DMSO Controls) GSK3b) was 8.65%, the IC50 ([1]; Table 5 kinase profiling) was 12 ± 1.2 nM and the remaining activity at 0.15 µM ([2]; 0.15 μM, read-out: % Enzyme Activity (Relative to DMSO Controls) KDR/VEGFR2) was 7.29%. It also gave an IC50 ([2]; Table 5 kinase profiling) of 8.32 ± 0.54 nM, a remaining activity at 0.15 µM ([3]; 0.15 μM, read-out: % Enzyme Activity (Relative to DMSO Controls) FLT3 (ITD)-NPOS) of 1.38% and an IC50 ([3]; Table 5 kinase profiling) of 4.32 ± 0.23 nM. For the same compound, the remaining activity at 0.15 µM ([4]; 0.15 μM, read-out: % Enzyme Activity (Relative to DMSO Controls) ERK7/MAPK15) was 2.96%, the IC50 ([4]; Table 5 kinase profiling) was 9.57 ± 0.23 nM and the IC50 [5] was 0.6 ± 0.01 nM. The remaining activity at 0.15 µM ([6]; 0.15 μM, read-out: % Enzyme Activity (Relative to DMSO Controls) CDK6/cyclin D1) was 1.33%, the IC50 ([6]; Table 5 kinase profiling) was 0.59 ± 0.09 nM and the remaining activity at 0.15 µM [7] was 73.8%. The remaining activity at 0.15 µM [8] was 82.8%, the remaining activity at 0.15 µM [9] was 35.4% and the remaining activity at 0.15 µM ([10]; 0.15 μM, read-out: % Enzyme Activity (Relative to DMSO Controls) FLT3) was 0.01%. For the same compound, the IC50 ([10]; Table 5 kinase profiling) was 0.035 ± 0.01 nM, the remaining activity at 0.15 µM ([11]; 0.15 μM, read-out: % Enzyme Activity (Relative to DMSO Controls) FLT3 (R595_E596insEY)) was 0.44% and the IC50 ([11]; Table 5 kinase profiling) was 1.59 ± 0.14 nM. The remaining activity at 0.15 µM [12] was 39.2%, the remaining activity at 0.15 µM [13] was 64.8% and the remaining activity at 0.15 µM ([14]; 0.15 μM, read-out: % Enzyme Activity (Relative to DMSO Controls) FLT4/VEGFR3) was 3.62%. The IC50 ([14]; Table 5 kinase profiling) was 4.16 ± 0.19 nM, the remaining activity at 0.15 µM [15] was 77.6% and the “% Enzyme Activity (Relative to DMSO Controls) ALK1/ACVR1” value [16] was 57.96%. It also gave a remaining activity at 0.15 µM ([17]; 0.15 μM, read-out: % Enzyme Activity (Relative to DMSO Controls) CDK2/cyclin A) of 4.01%, an IC50 ([17]; Table 5 kinase profiling) of 2.56 ± 0.31 nM and a remaining activity at 0.15 µM [18] of 122%.
